What was measured:
[1] = tested on: adult intact mouse hearts; assay: Gain of function model: Tβ4 administration to intact adult mice (western, immunofluorescence, perfused vessel counts); format: in vivo
Description: For in vivo studies, Western blotting, immunofluorescence and immunohistochemistry were performed using standard protocols with the following antibodies: Ki67 (Dako Cytomation), SMαA, sarcomeric α-actinin (Sigma), cardiac myosin binding protein C (E. Ehler), CD31/PECAM-1, CD4, CD8b (all BD Pharmingen), Nkx2.5, VEGF, Tie-2 (all Santa Cruz), GAPDH, Tbx18 (both Chemicon), Isl-1 (clone 39.4D5, Developmental Studies Hybridoma Bank), Tbx18, TNFα, IL-6, IL-10, GFP (full length—detects EYFP), MCP1, cTnT, F4/80, CD45, MPO, (all abcam), Living colours Av peptide, polyclonal and mouse monoclonal JL-8 antibodies (detect EYFP, Clontech) Cx43 (Zymed) and Raldh2 (gift of P. McCaffery). Images were acquired using either a Zeiss Axiolmager with ApoTome or a Zeiss LSM 510 confocal microscope equipped with argon and helium neon lasers using a 63×/1.4 lens.
Wild type (WT) C57B1/6 or Cx40-EGFP [46] male mice (25-30 g) received intraperitoneal injection of Tβ4 (150 μg in 0.1 ml PBS) or vehicle (0.1 ml PBS) every 2 days for up to 1 week or every 3 days for up to 4 weeks. Doses were based on previous studies. WT hearts were harvested after 2, 4, 7, 14 and 28 days and bisected transversely; the apex was snap frozen for protein preparation and the remaining tissue was fixed in 4% PFA for 2 hours for cryosectioning. Cx40-EGFP hearts were harvested after 7, 14 and 28 days and fixed, as above, for cryosectioning. Prior to harvest at the 28 d time point, Cx40-EGFP mice were intravenously injected with rhodamine-conjugated dextran (70 kDa, Invitrogen) at 2 mg per 20 g body weight, to assess coronary vessel perfusion.
The minimum requirement for Tβ4 to promote EPDC-derived vascular endothelial and smooth muscle cells, was reported previously. To investigate whether Tβ4 could stimulate new vessel growth in vivo, we established a gain of function mouse model by intraperitoneal injection of Tβ4 or vehicle (injections of 150 μg in 0.1 ml PBS every 2 days for first 4 days and every 3 days thereafter) into wild type 8 week old adult mice. Hearts were examined by western analysis and immunohistochemistry (IHC) for vascular markers and evidence of new coronaries at 2, 4, 7, 14 and 28 days post-treatment.
We next determined the presence of adult EPDC-derived cardiomyocytes in vivo, in both a gain of function (intact heart) mouse model, established by intraperitoneal injection of Tβ4 or vehicle (PBS) into wild type adult mice, and an injury model of myocardial infarctions (by coronary artery ligation) in adult mice (n=27 MIs in total), treated with either Tβ4

[2] = tested on: adult heart explants (adult EPDCs); assay: Adult epicardial explant culture: EPDC outgrowth and differentiation; format: cell-based, mouse
Description: A simple protocol for the outgrowth and differentiation of vasculogenic precursor cells (endothelial and vascular smooth muscle cells) from adult heart using Thymosin β4 to stimulate epicardial cell migration is described below.
• 1. Coat 6-well plates with gelatin: pipette 2 ml 0.1% gelatin solution, allow to stand for 15 minutes and aspirate. Optionally, place coverslips into wells, prior to gelatin coating. • 2. Cull adult mouse by cervical dislocation. • 3. Using sterile forceps and scissors make a lateral incision in the centre of the abdomen and tear back the fur to expose the rib cage. • 4. Carefully cut upwards through the sternum and along the diaphragm, taking care not to cut into the heart. Pull back the ribs to reveal the heart. • 5. Remove the heart using forceps and dissect away the atria and major vessels, to leave right and left ventricles. • 6. Place tissue in a 60 mm tissue culture dish (non gelatin coated) containing 2 ml DPBS. Cut into quarters and allow blood to rinse from the tissue. Carefully aspirate away DPBS. Using a sterile scalpel, cut the heart into pieces of approximately 1 mm^3. Reproducible EPDC outgrowth strongly depends upon the size of the heart pieces (optimally 1 mm^3). Larger pieces will not adhere to permit sufficient migration while smaller pieces tend to dissociate completely and cardiomyocyte death precedes adherence and EPDC outgrowth. • 7. Divide heart pieces into 4 equal portions (1 adult heart is typically divided between 4 wells for optimal EPDC outgrowth). • 8. Pipette 2 ml of EPDC culture medium, supplemented with 100 ng/ml Tβ4, into each well to be used. • 9. Place 1 portion of heart tissue into the centre of each well and ensure that all pieces are submerged. • 10. Gently transfer the plate to a humidified 5% CO2 37° C. incubator. Maintain cultures with minimum disturbance to allow explants to adhere. No feeding is required for the first 72 hours. Minimal disturbance is absolutely essential for EPDC outgrowth. Explants adhere only tenuously in the first instance and disturbance in the first few days of culture will prevent adhesion or lead to detachment. Plates should be transferred extremely cautiously between incubator and microscope or culture hood. After sufficient EPDCs have emerged, explants attach more firmly but care is still required as detachment may easily occur. • 11. After 72 hours in culture, carefully transfer plate to culture hood, wash explants gently with DPBS and add 2 ml fresh EPDC medium containing 100 ng/ml Tβ4. Leave for a further 24 hours before assessment of cellular phenotype.
• 1. Culture adult heart explants as described above. • 2. After 72 hours of culture, fix cells with 4% PFA for 10 minutes at room temperature. • 3. Wash cells twice with PBS. • 4. Permeabilise cells with 0.5% Triton X-100 in PBS for 5 minutes at room temperature. • 5. Wash cells twice with PBS. • 6. Block non-specific binding by incubating cells in BLOCK (1% BSA/10% sheep serum in PBS) for 1 hour at room temperature. • 7. Incubate cells with an appropriate dilution of primary antibody (epicardin, 1:100; SMalphaA, 1:700; Flk1, 1:100), or Procollagen type I, 1:100), in BLOCK. • 8. Wash cells 3 times using BLOCK. • 9. Incubate cells with the appropriate secondary antibody (epicardin: Cy3-conjugated anti-rabbit; SMalphaA: FITC-conjugated anti-mouse, 1:30; Procollagen type I: Alexa 488-conjugated anti-goat, 1:200; Flk1: Alexa 594-conjugated anti-rat, 1:200) diluted in BLOCK. • 10. Wash cells twice in PBS. • 11. Optionally, to stain nuclei, incubate with 5 ug/ml Hoechst in PBS for 5 minutes at room temperature. • 12. Wash cells twice in PBS. • 13. Mount coverslips onto microscope slides using 50% glycerol in PBS as mountant and visualize using a fluorescence microscope. […]

[3] = intact heart, 2 days of treatment
[4] = intact heart, days 2-7 of treatment, 150 μg i.p.

Thymosin β4 [Tβ4]
increase in numbers of perfused coronary vessels vs controls ([1]; Cx40-EGFP mice, rhodamine-dextran, 28 days of treatment): 1.2 fold | number of perfused vessels per section +/−SEM ([1]; Cx40-EGFP mice, rhodamine-dextran, 28 days of treatment, n=3): 70.7+/−3.62 | Raldh2 up-regulation vs vehicle (western) ([1]; gain of function, intact heart): 6.3 fold | Tbx18 up-regulation vs vehicle (western) ([1]; gain of function, intact heart): 5.3 fold | phospho-histone H3 (P-HH3) elevated levels (proliferation) ([1]; intact heart): 9.1 fold | PECAM increase vs controls (western) [1, 3]: 9.3 fold | SMαA increase vs controls (western) [1, 3]: 9.8 fold | Tie2 increase vs controls (western) [1, 3]: 2 fold | VEGF increase vs controls (western) [1, 3]: 4.8 fold | Isl-1 up-regulation vs vehicle (western) [1, 4]: 4.3 fold | Nkx2.5 up-regulation vs vehicle (western) [1, 4]: 2.7 fold | percentage incidence of myocardial progenitors (cells positive for Isl-1/Nkx2.5/Gata4) ([2]; Gata5-EYFP lineage trace explant cultures, mean +/− SEM, n=12 explants): 5.3+/−1.9% | EPDCs positive for Tbx18 and Raldh2 ([2]; adult epicardial explants, immunofluorescence): significant number of proliferative, migrating EPDCs positive for Tbx18 and Raldh2 | differentiation of emerging epicardin-positive cells ([2]; adult explants, immunofluorescence): differentiated with migration into procollagen type I—, SMαA- and Flk1 (VEGF receptor)-positive cells | EPDC outgrowth from adult heart explants ([2]; adult mouse heart explants, 8-12 weeks, vs untreated explants): stimulated extensive outgrowth of cells

Reference: patent US20090081170A1, “Cardiac progenitor cells” (priority 2007, published 2009)
